Read-outs that look alike come from different tables or passages of the source.
How the values were obtained:
[1] = molecular target: T1, hT2R54 (Homo sapiens, UniProt P59534); assay type: cell-based
T1 construct: expressed in transfected cells; host or cells: HEK293 cells stably expressing large T antigen and G16gust44; Transfection was transient for imaging
T1 sequence (P59534 18-338): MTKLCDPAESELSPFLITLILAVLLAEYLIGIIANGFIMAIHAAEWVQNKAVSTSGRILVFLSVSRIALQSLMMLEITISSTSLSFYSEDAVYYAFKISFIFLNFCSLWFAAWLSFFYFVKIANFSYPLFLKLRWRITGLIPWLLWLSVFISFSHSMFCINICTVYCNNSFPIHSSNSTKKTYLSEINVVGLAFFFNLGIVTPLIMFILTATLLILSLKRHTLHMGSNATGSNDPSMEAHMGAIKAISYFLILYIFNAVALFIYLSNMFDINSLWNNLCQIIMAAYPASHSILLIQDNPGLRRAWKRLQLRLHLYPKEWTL
Experimental: (§1) More particularly, the present inventors transfected HEK293 cells with a particular hT2R together with a chimeric G protein (G16 gust 44) which comprises the […] G protein sequence modified by the replacement of carboxy-44 amino acid residues with those of gustducin, and recorded responses of these cells to specific bitter ligands by calcium imaging methods.
(§2) Activation of these receptors by ranitidine is measured in a cell-based assay detecting changes in intracellular calcium concentration. In brief, human embryonic kidney cells stably expressing the large […] and a chimeric G protein (G16gust44) are transiently transfected with the a plasmid containing a particular hT2R54 nucleic acid sequence either by Ca^2+ phosphate or lipid-based systems. Transiently transfected cells are seeded into 24 well culture plates, and functional expression allowed to proceed for a total of 48 hours. The cells are then incubated with a fluorescent dye specific for calcium (Fluo-4 or Fura-2; Molecular Probes) that provides a fast, simple and reliable fluorescence-based method for detecting changes in calcium concentration inside the cell. Addition of ranitidine to cells elicits a signaling cascade leading to the activation of PLC and a subsequent increase in intracellular calcium concentration. This increase in calcium concentration changes the fluorescence properties of the calcium dye inside the cells. These changes are monitored using fluorescence microscopy and a specific design software (Imaging Workbench, Axon).
(§3) Transiently transfected cells are seeded into 24 well culture plates, and functional expression allowed to proceed for a total of 48 hours. The cells are then incubated with a fluorescent dye specific for calcium (Fluo-4 or Fura-2; Molecular Probes) that provides a fast, simple and reliable fluorescence-based method for detecting changes in calcium concentration inside the cell. […] This increase in calcium concentration changes the fluorescence properties of the calcium dye inside the cells. These changes are monitored using fluorescence microscopy and specific design software (Imaging Workbench, Axon).
as §3, with “Activation of these receptors by denatonium benzoate is measured in” for “Transiently transfected cells are seeded into 24 well culture plates, and functional expression allowed to proceed for”, “cell-based assay detecting changes in intracellular calcium concentration. […]” for “total of 48 hours.”

[2] = molecular target: T1, hT2R54; assay: dose response, stable HEK-G16gust44 line, calcium dye, FLIPR or VIPR; assay type: cell-based; settings: for dose response of hT2R54: stable HEK-G16gust44 line
Experimental: (§4) A HEK-G16gust44 line stably expressing high levels of hT2R8 or hT2R54 on its cell surface is used in high throughput screening assays. In this platform, the cells are seeded into 96 well or 384 well culture plates 18-24 hours before the assay. The cells are then incubated with the fluorescent calcium sensitive dye (Molecular Devices) and are stimulated and read in a standard fluorescence intensity plate reader (FLIPR or VIPR). Using this approach we have been able to further characterize the ranitidine effect on hT2R8 and hT2R54.
as §4, with “HEK-G16gust44 cell” for “HEK-G16gust44”, “of” for “of hT2R8 or”, “acetaminophen” for “ranitidine”, “on” for “on hT2R8 and”

[3] = taste detection threshold; assay type: in vivo, humans
[4] = molecular target: T2, mT2R5 (Mus musculus, UniProt Q9JKT4); settings: Chandrashekar et al. 2000; cited from earlier work
T2 construct: host or cells: insect Sf9 cells
T2 sequence (Q9JKT4 1-300): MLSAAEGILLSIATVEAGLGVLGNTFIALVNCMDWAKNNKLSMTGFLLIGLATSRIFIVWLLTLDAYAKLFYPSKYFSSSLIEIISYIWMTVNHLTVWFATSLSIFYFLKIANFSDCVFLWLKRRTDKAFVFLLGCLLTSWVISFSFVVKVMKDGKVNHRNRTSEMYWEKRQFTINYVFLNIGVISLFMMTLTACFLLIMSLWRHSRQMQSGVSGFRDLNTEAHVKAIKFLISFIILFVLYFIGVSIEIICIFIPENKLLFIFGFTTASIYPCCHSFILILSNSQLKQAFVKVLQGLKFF

[5] = molecular target: T3, hT2R75 (Homo sapiens, UniProt P59540); assay type: cell-based
T3 construct: expressed in transfected cells; host or cells: HEK293 cells stably expressing large T antigen and G16gust44, transiently transfected
T3 sequence (P59540 1-309): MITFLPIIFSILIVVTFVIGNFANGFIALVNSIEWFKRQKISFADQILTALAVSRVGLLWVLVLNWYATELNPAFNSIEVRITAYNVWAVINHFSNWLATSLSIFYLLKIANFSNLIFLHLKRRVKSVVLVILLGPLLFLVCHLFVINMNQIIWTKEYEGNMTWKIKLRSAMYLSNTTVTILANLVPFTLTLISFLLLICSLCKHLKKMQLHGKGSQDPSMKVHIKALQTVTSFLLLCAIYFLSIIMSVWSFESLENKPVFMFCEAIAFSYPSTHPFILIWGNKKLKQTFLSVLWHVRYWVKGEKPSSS
Experimental: as §1, §2
as §3, with “Activation of these receptors by denatonium benzoate is measured in” for “Transiently transfected cells are seeded into 24 well culture plates, and functional expression allowed to proceed for”, “cell-based assay detecting changes in intracellular calcium concentration. […]” for “total of 48 hours.”
(§5) Activation of these receptors by strychnine is measured in a cell-based assay detecting changes in intracellular calcium concentration. […] The cells are then incubated with a fluorescent dye specific for calcium (Fluo-4 or Fura-2; Molecular Probes) that provides a fast, simple and reliable fluorescence-based method for detecting changes in calcium concentration inside the cell. […] This increase in calcium concentration changes the fluorescence properties of the calcium dye inside the cells. These changes are monitored using fluorescence microscopy and a specific design software (Imaging Workbench, Axon).

[6] = molecular target: T4, hT2R8 (Homo sapiens, UniProt Q9NYW2); assay type: cell-based
T4 construct: expressed in transfected cells; host or cells: HEK293 cells stably expressing large T antigen and chimeric G protein G16gust44; Transfection was transient for imaging
T4 sequence (Q9NYW2 1-309): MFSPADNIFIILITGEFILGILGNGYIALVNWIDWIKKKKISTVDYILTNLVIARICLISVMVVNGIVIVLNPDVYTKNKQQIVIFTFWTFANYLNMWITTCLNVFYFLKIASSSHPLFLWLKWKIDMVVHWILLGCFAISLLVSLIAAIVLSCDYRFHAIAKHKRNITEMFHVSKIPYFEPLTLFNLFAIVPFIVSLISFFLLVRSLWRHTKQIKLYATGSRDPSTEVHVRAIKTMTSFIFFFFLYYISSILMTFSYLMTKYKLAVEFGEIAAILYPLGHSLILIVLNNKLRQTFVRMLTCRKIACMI
Experimental: as §1, §2
as §5, with “denatonium benzoate” for “strychnine”, “and” for “and a”
as §5

[7] = molecular target: T5, hT2R10 (Homo sapiens, UniProt Q9NYW0); assay type: cell-based; settings: concentration not given
T5 construct: expressed in transfected cells; host or cells: HEK293 cells stably expressing large T antigen and G16gust44, transiently transfected
T5 sequence (Q9NYW0 1-307): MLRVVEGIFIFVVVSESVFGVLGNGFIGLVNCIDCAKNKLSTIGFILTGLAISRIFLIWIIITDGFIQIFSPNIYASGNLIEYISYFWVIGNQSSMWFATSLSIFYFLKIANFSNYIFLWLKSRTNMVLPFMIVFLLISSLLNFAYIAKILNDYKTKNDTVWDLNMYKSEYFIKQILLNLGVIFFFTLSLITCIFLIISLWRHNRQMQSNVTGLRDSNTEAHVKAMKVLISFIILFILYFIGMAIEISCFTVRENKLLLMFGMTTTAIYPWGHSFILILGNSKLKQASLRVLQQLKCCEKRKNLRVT
Experimental: as §1
as §5, with “denatonium benzoate” for “strychnine”, “and” for “and a”
Activation of these receptors by strychnine is measured in a cell-based assay detecting changes in intracellular calcium concentration. […] The cells are then incubated with a fluorescent dye specific for calcium (Fluo-4 or Fura-2; Molecular Probes) that provides a fast, simple and reliable fluorescence-based method for detecting changes in calcium concentration inside the cell. […]

[8] = molecular target: T6, hT2R13 (Homo sapiens, UniProt Q9NYV9); assay type: cell-based; settings: concentration not given
T6 construct: expressed in transfected cells; host or cells: HEK293 cells stably expressing large T antigen and G16gust44, transiently transfected
T6 sequence (Q9NYV9 1-303): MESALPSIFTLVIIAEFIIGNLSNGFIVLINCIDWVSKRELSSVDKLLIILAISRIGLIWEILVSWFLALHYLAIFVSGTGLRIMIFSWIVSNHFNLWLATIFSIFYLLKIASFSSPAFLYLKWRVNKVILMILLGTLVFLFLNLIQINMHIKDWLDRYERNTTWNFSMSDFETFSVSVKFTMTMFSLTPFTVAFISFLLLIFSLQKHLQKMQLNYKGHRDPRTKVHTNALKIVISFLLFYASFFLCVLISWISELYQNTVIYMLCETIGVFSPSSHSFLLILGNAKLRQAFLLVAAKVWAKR
Experimental: as §1
as §2, with “receptors by denatonium benzoate is measured” for “receptors by ranitidine is measured”, “a particular hT2R nucleic acid” for “a particular hT2R54 nucleic acid”, “the cell. […] This increase” for “the cell. Addition of ranitidine to cells elicits a signaling cascade leading to the activation of PLC and a subsequent increase in intracellular calcium concentration. This increase”, “microscopy and specific design” for “microscopy and a specific design”

[9] = molecular target: T7, hT2R61 (Homo sapiens, UniProt P59537, H212R/W35S); assay type: cell-based; settings: concentration not given
T7 construct: expressed in transfected cells; host or cells: HEK293 cells stably expressing large T antigen and G16gust44, transiently transfected
T7 sequence (P59537 1-309 W35S/H212R): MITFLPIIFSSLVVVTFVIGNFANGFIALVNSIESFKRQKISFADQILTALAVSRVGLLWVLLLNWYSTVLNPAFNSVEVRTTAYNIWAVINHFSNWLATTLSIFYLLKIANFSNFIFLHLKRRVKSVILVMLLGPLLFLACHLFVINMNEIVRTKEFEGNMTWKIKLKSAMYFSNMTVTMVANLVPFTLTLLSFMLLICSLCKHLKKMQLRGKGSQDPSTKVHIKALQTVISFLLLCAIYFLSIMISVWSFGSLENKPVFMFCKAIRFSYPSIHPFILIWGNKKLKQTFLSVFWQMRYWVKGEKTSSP
Experimental: as §1
as §2, with “receptors by denatonium benzoate is measured” for “receptors by ranitidine is measured”, “a particular hT2R nucleic acid” for “a particular hT2R54 nucleic acid”, “the cell. […] This increase” for “the cell. Addition of ranitidine to cells elicits a signaling cascade leading to the activation of PLC and a subsequent increase in intracellular calcium concentration. This increase”, “microscopy and specific design” for “microscopy and a specific design”

[10] = molecular target: T4, hT2R8; assay: dose response, stable HEK-G16gust44 line, calcium dye, FLIPR or VIPR; assay type: cell-based
Experimental: as §4
as §4, with “[…]” for “or hT2R54”, “VIPR).” for “VIPR). Using this approach we have been able to further characterize the ranitidine effect on hT2R8 and hT2R54.”

[11] = molecular target: T8, hT2R4 (Homo sapiens, UniProt Q9NYW5); settings: Chandrashekar et al. 2000; cited from earlier work
T8 sequence (Q9NYW5 1-299): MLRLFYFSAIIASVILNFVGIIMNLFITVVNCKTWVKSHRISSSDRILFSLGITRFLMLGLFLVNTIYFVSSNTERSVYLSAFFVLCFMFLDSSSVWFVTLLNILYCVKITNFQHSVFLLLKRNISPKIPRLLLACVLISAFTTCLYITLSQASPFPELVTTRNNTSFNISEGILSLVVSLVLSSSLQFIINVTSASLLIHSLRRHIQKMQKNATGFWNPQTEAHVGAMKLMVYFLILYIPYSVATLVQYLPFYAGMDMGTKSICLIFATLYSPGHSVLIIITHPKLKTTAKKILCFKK

SMILES: CC(=O)Nc1ccc(O)cc1 [acetaminophen]
- response of hT2R54 in calcium imaging ([1]; 10 μM): responded specifically
- EC50 [2]: 1.83 µM
- dose response of hT2R54 [2]: typical dose-response relationship
- taste detection threshold / bitter taste threshold for humans [3]: 1.25 µM

SMILES: C[C@@H]1C[C@@H]([C@H](O)CC2CC(=O)NC(=O)C2)C(=O)[C@@H](C)C1 [cycloheximide]
- gustducin activation by mT2R5 [4]: occurs only in response to cycloheximide

SMILES: CC[N+](CC)(CC(=O)Nc1c(C)cccc1C)Cc1ccccc1 [denatonium benzoate]
- response of hT2R75 in calcium imaging ([5]; concentration not given): respond specifically
- response of hT2R8 in calcium imaging ([6]; concentration not given): respond specifically
- response of hT2R10 in calcium imaging [7]: respond specifically
- response of hT2R54 in calcium imaging ([1]; concentration not given): respond specifically
- response of hT2R13 in calcium imaging [8]: respond specifically
- response of hT2R61 in calcium imaging [9]: respond specifically
- EC50 ([10]; dose response, FIG. 6): 450 µM
- dose response of hT2R8 ([10]; stable HEK-G16gust44 line): typical dose-response relationship
- EC50 ([2]; dose response, FIG. 4, read-out: EC50, hT2R54): 0.38 µM
- dose response of hT2R54 [2]: typical dose-response relationship
- taste detection threshold ([3]; in vivo): 24 mM
- effective denatonium concentrations activating hT2R4 [11]: 1.5 mM

SMILES: CNC(=C[N+](=O)[O-])NCCSCc1ccc(CN(C)C)o1 [ranitidine]
- taste detection threshold / bitter taste threshold for humans [3]: 78 µM

SMILES: OCc1ccccc1O[C@@H]1O[C@H](CO)[C@@H](O)[C@H](O)[C@H]1O [salicin]
- response of hT2R54 in calcium imaging ([1]; 10 μM): does not respond

SMILES: OC[C@H]1O[C@@](CO)(O[C@H]2O[C@H](CO)[C@@H](O)[C@H](O)[C@H]2O)[C@@H](O)[C@@H]1O [sucrose]
- response of hT2R75 in calcium imaging ([5]; 10 μM): did not respond
- response of hT2R8 in calcium imaging ([6]; 10 μM): did not respond
- response of hT2R54 in calcium imaging ([1]; 10 μM): did not respond

From patent publication US8273542B2 (priority 2005, dated 2012)
